Source: ChEMBL document CHEMBL3425465, “Synthesis, antimalarial and antitubercular activities of meridianin derivatives” (Eur J Med Chem, 2015)
Values after ≈ are worked out from the molar mass of the structure shown.

Columns and labels:
Assay type in all cases: functional
[1] = tested on: Mycobacterium tuberculosis; test: Antitubercular activity against multidrug-resistant Mycobacterium tuberculosis assessed as parasite growth inhibition by REMA method
[2] = tested on: Mycobacterium tuberculosis; test: Antitubercular activity against Isoniazid-resistant Mycobacterium tuberculosis assessed as parasite growth inhibition by REMA method
[3] = tested on: Mycobacterium tuberculosis; test: Antitubercular activity against Rifampicin-resistant Mycobacterium tuberculosis assessed as parasite growth inhibition by REMA method
[4] = tested on: Mycobacterium tuberculosis; test: Ratio of isoniazid IC50 to compound IC50 for Isoniazid-resistant Mycobacterium tuberculosis by REMA method

| SMILES | MIC90 [1] | MIC90 [2] | MIC90 [3] | Ratio [4] |
| --- | --- | --- | --- | --- |
| CO[C@H]1/C=C/O[C@@]2(C)Oc3c(C)c(O)c4c(O)c(c(/C=N/N5CCN(C)CC5)c(O)c4c3C2=O)NC(=O)/C(C)=C\C=C\[C@H](C)[C@H](O)[C@@H](C)[C@@H](O)[C@@H](C)[C@H](OC(C)=O)[C@@H]1C [RIFAMPIN] | 38.9 µM (≈ 32 µg/mL) | 0.07 µM (≈ 0.0576 µg/mL) | 311 µM (≈ 256 µg/mL) | – |
| O=C1NC(c2c[nH]c3ccc(Br)cc23)Nc2ccccc21 (stereo not drawn) | 188 µM (≈ 64.2 µg/mL) | 46.9 µM (≈ 16 µg/mL) | 46.9 µM (≈ 16 µg/mL) | – |
| O=C1NC(c2c[nH]c3ccc(I)cc23)Nc2ccccc21 (stereo not drawn) | 20.7 µM (≈ 8.06 µg/mL) | 10.3 µM (≈ 4.01 µg/mL) | 5.2 µM (≈ 2.02 µg/mL) | >12 |
| NNC(=O)c1ccncc1 [ISONIAZID] | 117 µM (≈ 16 µg/mL) | 467 µM (≈ 64.1 µg/mL) | – | – |
| CC[C@@H](CO)NCCN[C@@H](CC)CO [ETHAMBUTOL] | 626 µM (≈ 128 µg/mL) | – | – | – |
